Test results from patent US9808448B2, “Pharmaceutical compounds and use of same in cancer and tauopathies” (THE REGENTS OF THE UNIVERSITY OF MICHIGAN, priority 2013, dated 2017).
Entries after “also recorded” stand apart in the source; their conditions may differ. Read-outs that look alike come from different tables or passages of the source.

Columns and labels:
[1] = system: human 4R0N tau in HeLaC3 cells; assay: Tau levels in HeLaC3 cells by Western blot; assay type: cell-based
Protocol: To determine whether YM-08 might also accelerated tau degradation, HeLaC3 cells, which stably over-express human 4R0N tau, were treated with compound. After 24 hours, the levels of phosphorylated (p396/404) tau and total tau were measured by Western blot. […] This cellular activity is not as dramatic as that of MKT-077, which reduced tau levels by >80% at 30 μM (FIG. 4D); however, reducing tau by only about 50% is predicted to provide benefits in some AD models.

[2] = in vivo; cited from earlier work
human Hsc70 (HSPA8) = target: T1, human Hsc70 (HSPA8) (Homo sapiens, UniProt P11142); assay: ELISA competitive binding assay (biotinylated MKT-077 displacement)
T1 construct: made in house
T1 sequence (P11142 whole entry): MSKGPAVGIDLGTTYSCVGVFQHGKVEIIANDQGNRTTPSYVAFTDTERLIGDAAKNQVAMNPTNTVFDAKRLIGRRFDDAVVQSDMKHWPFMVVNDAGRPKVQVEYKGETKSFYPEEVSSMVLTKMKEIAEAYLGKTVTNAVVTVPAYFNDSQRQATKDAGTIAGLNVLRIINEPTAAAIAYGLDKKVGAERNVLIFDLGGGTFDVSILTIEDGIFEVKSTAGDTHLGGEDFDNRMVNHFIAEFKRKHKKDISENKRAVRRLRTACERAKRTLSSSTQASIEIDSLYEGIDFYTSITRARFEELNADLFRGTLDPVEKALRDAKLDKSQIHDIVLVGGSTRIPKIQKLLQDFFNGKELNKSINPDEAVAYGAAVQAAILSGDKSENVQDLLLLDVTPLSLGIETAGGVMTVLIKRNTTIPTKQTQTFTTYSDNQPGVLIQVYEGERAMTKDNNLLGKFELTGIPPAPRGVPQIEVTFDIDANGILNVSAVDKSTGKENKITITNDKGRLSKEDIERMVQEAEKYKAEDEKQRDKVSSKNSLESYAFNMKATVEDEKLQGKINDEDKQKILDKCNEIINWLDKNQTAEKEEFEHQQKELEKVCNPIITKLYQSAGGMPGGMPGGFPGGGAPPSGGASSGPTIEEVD
Protocol: Binding of MKT-077 analogs to immobilized Hsp70 was evaluated using a competitive ELISA. In this established assay, a biotinylated version of MKT-077 is bound to immobilized human Hsc70 (HSPA8) and potential competitors are tested for their ability to block the interaction.
A sample of Hsc70 (50 μL; 0.06 mg/mL) was immobilized in clear flat-bottom 96-well plate in MES buffer (50 mM 2-(N-morpholino)ethanesulfonic acid, pH 5.2) at 37° C. overnight. After discarding the excess protein solution, each well was washed three times with 150 μL TBS-T buffer (25 mM Tris, 140 mM NaCl, 2.7 mM KCl, 0.01% Tween-20, pH 7.4). Then, 1 μL of compound (1% DMSO) was diluted into 24 μL of binding buffer (100 mM Tris, 20 mM KCl, 6 mM MgCl2, 0.01% Triton-X100) and incubated at room temperature for 30 min. Biotin labeled MKT-077 (final concentration 1 μM; 25 μL) was subsequently added into each well and the mixture was incubated at room temperature for another 3 hrs. The wells were washed with 150 μL TBS-T buffer three times prior to blocking with 100 μL 3% bovine serum albumin (BSA) in TBS-T buffer for 5 min at room temperature. After the removal of the BSA solution, 50 μL of HRP-streptavidin (Pierce Biotechnology, 1:50000 TBS-T dilution) solution was added and the plates were incubated at room temperature for 1 hr. The HRP-streptavidin solution was removed and wells were washed three times with 150 μL TBS-T. […] substrate (Cell Signaling Technology 100 μL) was added into each well and incubated at room temperature until a visible blue color was shown in wells (about 20 min). 1 M HCl stop solution was then added into each well to yield a yellow solution and the absorbance at 450 nm was recorded on SpectraMax M5 (Molecular Devices).

[3] = Phase I, anti-cancer agent; cited from earlier work
[4] = system: MCF-7, MCF-10A and MB-MDA-231 cells; assay: MTT assays, three cell lines; assay type: cell-based; details: range over MCF-7, MCF-10A and MB-MDA-231 cells
Protocol: YM-08 was tested whether it might retain the anti-cancer activity of MKT-077.

[5] = target: prokaryotic Hsp70 (DnaK) binding to denatured luciferase (Escherichia coli, UniProt P0A6Y8); assay: Luciferase binding assay; assay type: biochemical; details: 50 μM
Sequence of prokaryotic Hsp70 (DnaK) binding to denatured luciferase (P0A6Y8 whole entry): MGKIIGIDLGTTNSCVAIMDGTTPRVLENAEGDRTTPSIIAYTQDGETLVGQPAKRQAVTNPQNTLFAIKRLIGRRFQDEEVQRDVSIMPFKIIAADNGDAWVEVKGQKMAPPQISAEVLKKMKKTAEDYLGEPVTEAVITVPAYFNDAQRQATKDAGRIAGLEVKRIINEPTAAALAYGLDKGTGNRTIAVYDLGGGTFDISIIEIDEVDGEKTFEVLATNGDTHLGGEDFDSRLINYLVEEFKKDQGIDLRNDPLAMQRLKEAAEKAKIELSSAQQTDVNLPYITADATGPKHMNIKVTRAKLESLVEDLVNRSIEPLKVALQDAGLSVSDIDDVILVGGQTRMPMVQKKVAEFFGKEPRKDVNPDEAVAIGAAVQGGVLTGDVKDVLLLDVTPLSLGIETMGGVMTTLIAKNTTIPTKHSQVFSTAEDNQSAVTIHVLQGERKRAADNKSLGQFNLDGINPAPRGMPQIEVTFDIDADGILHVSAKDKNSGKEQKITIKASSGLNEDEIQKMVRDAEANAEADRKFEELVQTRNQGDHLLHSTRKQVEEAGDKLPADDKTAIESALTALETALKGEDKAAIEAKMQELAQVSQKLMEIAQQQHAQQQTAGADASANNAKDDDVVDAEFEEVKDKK
Protocol: Next, the effect of chaperone functions by binding of YM-08 to Hsp70 was investigated. […] This profile is shared with other allosteric Hsp70 inhibitors. As another test of chaperone function, the effects of the compounds on the binding of Hsp70 to a misfolded protein were measured. In previous work, MKT-077 stabilized the interaction between prokaryotic Hsp70 (DnaK) and denatured luciferase. Briefly, this assay involves immobilizing unfolded luciferase in microtiter plates and measuring binding to DnaK. […] To explore whether YM-08 might also enhance binding of Hsp70 to a more physiologically relevant substrate, binding of tau to immobilized human Hsc70 was measured.
Binding of prokaryotic Hsp70 (DnaK) to denatured luciferase was measured as previously described, in e.g., Miyata, et al., J. Biomol. Screen, 15:1211-1219 (2010). Briefly, firefly luciferase (0.2 mg/mL) was proteolyzed with trypsin and immobilized in 96-well microtiter plates. After washing, the binding of luciferase to DnaK (500 nM) was measured using an anti-DnaK antibody and HRP secondary antibody. A similar strategy was used to monitor binding of human Hsc70 to tau, as previously described in Thompson, et al., ACS Chem. Biol., 7:1677-1686 (2012).

MCF7 cells = assay: Combination therapy Hsp70 and Hsp90, MCF7 growth; assay type: cell-based; details: with 1 nM rapamycin or 1 nM 17-AAG
Protocol: The cells were then treated with the Hsp70 inhibitor JG-83 or JG-84 alone or in combination with the Hsp90 inhibitor 1 nM rapamycin or 1 nM 17-AAG.

MCF-7 = assay: Cancer activity screen (MTT cell survival), MCF-7; assay type: cell-based; details: especially in MCF7 cells
MDA-MB-231 cells = assay: Combination cell viability by MTT, MDA-MB-231; assay type: cell-based; details: for combination index CI50 / combination index CI75 / combination index CI90 / combination index CI95: 24 hrs
Protocol: To further test if an Hsp70 inhibitor would have synergistic activity with inhibitors of Hsp90 and the proteasome, MDA-MB-231 cells were treated for 24 hrs with combinations of an HSP70 inhibitor and an HSP90 inhibitor and measured cell viability by MTT assays. […] JG98 was also synergistic at ratios of JG98:17DMAG of 1:1 and at ratios of JG98:bortezomib at 100:1.

[6] = Liver microsome stability; assay type: in vitro ADME; details: human liver microsomes
[7] = Initial pharmacokinetics and biodistribution in CD1 mice; assay type: in vivo, mouse; details: i.v., YM-01 20 mg/kg saline, YM-08 10 mg/kg 10% DMSO/saline
Protocol: (A) Initial pharmacokinetics and biodistribution of YM-01 and YM-08. Compounds were suspended in buffered saline (YM-01) or 10% DMSO/saline (YM-08) and injected at 20 and 10 mg/kg, respectively. YM-08 was not soluble in saline or 10% DMSO/saline at 20 mg/kg. The levels of YM-08 in the brain at 1 hr after injection could not be accurately determined because its value was outside the calibration curve. […] Results are average from data acquired from three female mice. (C) YM-08 maintains a B/P ratio of nearly 0.25 for 18 hrs.
The initial pharmacokinetics (PK) of YM-01 and YM-08 were tested in CD1 mice. […] After a single 6.6 mg/kg dose delivered i.v., the peak brain concentration of YM-08 was 4 μg/g (FIG. 7B) and the ratio in the brain:plasma (B/P) ratio was approximately 0.25 for 18 hrs (FIG. 7C). […] It is not yet clear how much tau levels need to be reduced to achieve therapeutic effects in disease models, but the area-under-the-curve (AUCinf) for YM-08 in the brain was 0.26 μg·hr/g and the AUCinf in plasma was 13.6 μg·hr/mL.

[8] = read-out: IC50, inhibition of biotinylated MKT-077 binding to immobilized Hsc70, competitive ELISA, biotin labeled MKT-077 1 μM
[9] = competitive ELISA, biotin labeled MKT-077 1 μM

## CCn1c(=O)/c(=C2\Sc3ccccc3N2C)s/c1=C\c1cccc[n+]1CC [MKT-077, 1-ethyl-2-((Z)-((E)-3-ethyl-5-(3-methylbenzo[d]thiazol-2(3H)-ylidene)-4-oxothiazolidin-2-ylidene)methyl)pyridin-1-ium]
[1]; 30 μM
  reduction of tau levels: > 80%
[2]
  BBB crossing: does not cross the BBB
  kidney accumulation: dramatic accumulation of MKT-077 in the kidney
Human Hsc70 (HSPA8)
  IC50: 6.4 ± 0.23 µM
[3]
  clinical toxicity: nephrotoxicity in a subset of patients
[4]
  EC50: 1.4 to 3 µM
[5]
  enhancement of DnaK binding to denatured luciferase: about 30%

## (Z)-2-((3-ethyl-4-oxothiazolidin-2-ylidene)methyl)-1-methylpyridin-1-ium [YM-04]
Human Hsc70 (HSPA8); ratio of ELISA IC50
  affinity fold worse than YM-07: about 2 fold
Human Hsc70 (HSPA8); [8]
  IC50: ~15 µM
[5]
  activity in luciferase binding assay: reduced activity

## CCn1c(=O)/c(=C2\Sc3cccc(F)c3N2C)s/c1=C\c1scc[n+]1Cc1ccccc1 [JG-83]
MCF7 cells
  IC50 in combination versus Hsp70 inhibitor alone: decreased IC50 concentrations

## CCN1C(=O)/C(=C2\Sc3ccccc3N2C)SC1=S [YM-02, (E)-3-ethyl-5-(3-methylbenzo[d]thiazol-2(3H)-ylidene)-2-thioxothiazolidin-4-one]
[1]
  anti-tau activity in cells: some residual activity
Human Hsc70 (HSPA8); [9]
  IC50: > 50 µM
[5]
  activity in luciferase binding assay: reduced activity; also recorded: some residual activity
MCF-7
  anti-cancer activity: residual activity

## CCn1c(=O)/c(=C2\Sc3cc(Cl)ccc3N2C)s/c1=C\c1scc[n+]1Cc1ccccc1.[Cl-] [JG-98]
MDA-MB-231 cells; JG98:17DMAG 1:1
  synergy: synergistic
MDA-MB-231 cells; JG98:17DMAG (10:1)
  combination index CI50: 1.09
  combination index CI75: 0.35
  combination index CI90: 0.27
  combination index CI95: 0.2
MDA-MB-231 cells; JG98:bortezomib 100:1
  synergy: synergistic
MDA-MB-231 cells; JG98:bortezomib (1:1)
  combination index CI50: 0.05
  combination index CI75: 0.05
  combination index CI90: < 0.02
  combination index CI95: < 0.02

## CCN1C(=O)CS/C1=C\c1ccccn1 [YM-07, (Z)-3-ethyl-2-(pyridin-2-ylmethylene)thiazolidin-4-one]
Human Hsc70 (HSPA8); [9]
  IC50: ~5.8 µM
Human Hsc70 (HSPA8); ratio of ELISA IC50
  affinity fold worse than YM-08: about 10 fold
[5]
  activity in luciferase binding assay: reduced activity
MCF-7
  anti-cancer activity: residual activity

## (E)-3-ethyl-5-(3-methylbenzo[d]thiazol-2(3H)-ylidene)-2-(methylthio)-4-oxo-4,5-dihydrothiazol-3-ium [YM-03]
[5]
  activity in luciferase binding assay: reduced activity

## CCn1c(=O)/c(=C2\Sc3cccc(Cl)c3N2C)s/c1=C\c1scc[n+]1Cc1ccccc1 [JG-84]
MCF7 cells
  IC50 in combination versus Hsp70 inhibitor alone: decreased IC50 concentrations

## CCn1c(=O)/c(=C2\Sc3ccccc3N2C)s/c1=C\c1cccc[n+]1C [YM-01, 2-((Z)-((E)-3-ethyl-5-(3-methylbenzo[d]thiazol-2(3H)-ylidene)-4-oxothiazolidin-2-ylidene)methyl)-1-methylpyridin-1-ium]
Human Hsc70 (HSPA8); [8]
  IC50: 3.2 ± 0.23 µM
[6]
  t1/2: approximately 4 minutes
[5]
  enhancement of DnaK binding to denatured luciferase: about 30%
[7]; 0.16 and 1 hrs
  kidney distribution: prevalent in the kidney
[7]; 0.16 hrs
  brain penetration: lacked detectable brain penetration
